From PubChem BioAssay AID296 (DTP/NCI, 2004) come the findings set out here.

Where “and” joins values, the source holds several entries; their conditions need not be identical. Equal entries are not always repeated. Results filed as inconclusive are left out.

The experiment relates to MX-1 breast xenograft, nude mice, tumor weight T/C. Put plainly: NCI In Vivo Anticancer Drug Screen. Data for tumor model Human Mammary Carcinoma MX-1 Xenograft (intrarenal inoculation) in NU/NU Swiss (nude) mice. To be noted: endpoint: mean tumor weight change, higher = larger tumour. Put shortly: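 Antitumour effect measured in vivo against vehicle controls, expressed as T/C.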
Background: A xenograft is tissue or cells of one species grown in another, often human tumour cells in immunodeficient mice.

[1] abbreviates: dose: 300.0 mg/kg/injection, schedule: Q04DX003 (sc), vehicle: saline with Tween-80.
Setting [2] is: dose: 600.0 mg/kg/injection, schedule: Q04DX003 (sc), vehicle: saline with Tween-80.
Where [3] appears, read: dose: 150.0 mg/kg/injection, schedule: Q04DX003 (sc), vehicle: saline.
Setting [4] is: dose: 50.0 mg/kg/injection, schedule: Q01DX010 (sc), vehicle: saline.
The mark [5] stands for this setting: dose: 100.0 mg/kg/injection, schedule: Q01DX010 (sc), vehicle: saline.
The mark [6] stands for this setting: dose: 100.0 mg/kg/injection, schedule: Q01DX010 (sc), vehicle: Klucel (hydroxypropylcellulose) (HPC).
Where [7] appears, read: dose: 1200.0 mg/kg/injection, schedule: Q04DX003 (sc), vehicle: saline with Tween-80.
Where [8] appears, read: dose: 2400.0 mg/kg/injection, schedule: Q04DX003 (sc), vehicle: saline with Tween-80.
[9] abbreviates: dose: 200.0 mg/kg/injection, schedule: Q01DX010 (sc), vehicle: saline.

Consider `C[Si](C)(CCl)N[Si](C)(C)CCl`, for which the T/C under setting [1] was 50 % of control and the T/C under setting [2] is 35 % of control.
In the case of `[Cl][Mn][Cl]`, the T/C (dose: 37.5 mg/kg/injection, schedule: Q04DX003 (sc), vehicle: saline) was 115 % of control; the T/C (dose: 75.0 mg/kg/injection, schedule: Q04DX003 (sc), vehicle: saline) was 109 % of control; the T/C under setting [3] is 104 % of control.
Take `O=C(O)C1CSCN1` (stereo not drawn): where the note is “dose: 50.0 mg/kg/injection, schedule: Q01DX010 (sc), vehicle: water”, the T/C was 176 % of control.
As to `C=CC(=O)NCNC(=O)C=C`, the T/C is 82 % of control under setting [4] and 91 % of control under setting [5].
Turning to `C[C@]12C=CC(=O)C=C1CC[C@@H]1[C@@H]2[C@@H](O)C[C@@]2(C)[C@H]1CC[C@]2(O)C(=O)CO`, the T/C was 50 % of control (dose: 12.5 mg/kg/injection, schedule: Q01DX010 (sc), vehicle: Klucel (hydroxypropylcellulose) (HPC)); 67 % of control (dose: 25.0 mg/kg/injection, schedule: Q01DX010 (sc), vehicle: Klucel (hydroxypropylcellulose) (HPC)); 55 % of control (dose: 50.0 mg/kg/injection, schedule: Q01DX010 (sc), vehicle: Klucel (hydroxypropylcellulose) (HPC)); 24 % of control under setting [6].
`COc1cc(NCc2ccc3nc(N)nc(N)c3c2C)cc(OC)c1OC` (tested in a mixture with another compound): the T/C is, setting by setting: (dose: 10.0 mg/kg/injection, schedule: Q04DX003 (ip), vehicle: water) 92 % of control; (dose: 20.0 mg/kg/injection, schedule: Q04DX003 (ip), vehicle: water) 100 % of control; (dose: 40.0 mg/kg/injection, schedule: Q04DX003 (ip), vehicle: water) 101 % of control; (dose: 80.0 mg/kg/injection, schedule: Q04DX003 (ip), vehicle: water) 115 % of control; (dose: 160.0 mg/kg/injection, schedule: Q04DX003 (ip), vehicle: water) 70 % of control.
For the compound `COCCCNC1=C(C#N)C(=O)NC(c2cccc([N+](=O)[O-])c2)S1` (stereo not drawn), the T/C by setting is: under setting [1], 96 % of control; under setting [2], 101 % of control; under setting [7], 56 % of control; under setting [8], 95 % of control.
Regarding `COc1ccc(-c2csc(=[N+]3CCCCC3)s2)cc1`, the T/C is 89 % of control (dose: 3.12 mg/kg/injection, schedule: Q04DX003 (sc), vehicle: water); 85 % of control (dose: 6.25 mg/kg/injection, schedule: Q04DX003 (sc), vehicle: water); 89 % of control (dose: 12.5 mg/kg/injection, schedule: Q04DX003 (sc), vehicle: water).
As for `C[CH2][Sn]([CH2]C)([CH2]C(=O)OC)[CH2]C(=O)OC`, the T/C by setting is: (dose: 12.5 mg/kg/injection, schedule: Q04DX003 (sc), vehicle: saline with Tween-80) 79 % of control; (dose: 25.0 mg/kg/injection, schedule: Q04DX003 (sc), vehicle: saline with Tween-80) 116 % of control.
For the compound `NC(=O)/C=C/c1c[nH]c2nccnc12`, the T/C reads like this: (dose: 25.0 mg/kg/injection, schedule: Q04DX003 (sc), vehicle: water) 98 % of control; (dose: 50.0 mg/kg/injection, schedule: Q04DX003 (sc), vehicle: water) 46 % of control.
For `Nc1cc2[nH]cnc2c(=O)[nH]1`, the T/C by setting is: (dose: 25.0 mg/kg/injection, schedule: Q01DX010 (sc), vehicle: saline) 46 % of control; under setting [4], -36 % of control; (dose: 50.0 mg/kg/injection, schedule: Q01DX010 (sc), vehicle: suspension in saline) 9 % of control; (dose: 50.0 mg/kg/injection, schedule: Q04DX003 (sc), vehicle: suspension in saline) 95 % of control; under setting [5], -25 % of control and -11 % of control; (dose: 100.0 mg/kg/injection, schedule: Q01DX010 (sc), vehicle: suspension in saline) -28 % of control. Further, the T/C reads like this: (dose: 100.0 mg/kg/injection, schedule: Q04DX003 (sc), vehicle: suspension in saline) 83 % of control and 100 % of control; under setting [9], -31 % of control; (dose: 200.0 mg/kg/injection, schedule: Q01DX010 (sc), vehicle: suspension in saline) -89 % of control; (dose: 200.0 mg/kg/injection, schedule: Q04DX003 (sc), vehicle: suspension in saline) 8 % of control and 31 % of control; (dose: 400.0 mg/kg/injection, schedule: Q04DX003 (sc), vehicle: suspension in saline) 12 % of control and 18 % of control; (dose: 800.0 mg/kg/injection, schedule: Q04DX003 (sc), vehicle: suspension in saline) 8 % of control.
On to `CN(C)/N=N/c1nc[nH]c1C(N)=O`, for which the T/C is 93 % of control under setting [6]; 48 % of control (dose: 200.0 mg/kg/injection, schedule: Q01DX010 (sc), vehicle: Klucel (hydroxypropylcellulose) (HPC)); 14 % of control (dose: 400.0 mg/kg/injection, schedule: Q01DX010 (sc), vehicle: Klucel (hydroxypropylcellulose) (HPC)).
`Cc1cc2nc3c(=O)[nH]c(=O)nc-3n(CC(O)C(O)C(O)C(O)CO)c2cc1C` (stereo not drawn): the T/C is, setting by setting: under setting [1], 93 % of control; under setting [2], 89 % of control; under setting [7], 89 % of control; under setting [8], 91 % of control.
Consider `CCN(CC)CCOC(=O)Cc1cccc2c(=O)cc(-c3ccccc3)oc12`, for which the T/C is 107 % of control (dose: 100.0 mg/kg/injection, schedule: Q04DX003 (sc), vehicle: saline with Tween-80) and 102 % of control (dose: 200.0 mg/kg/injection, schedule: Q04DX003 (sc), vehicle: saline with Tween-80).
`O=C1C=C(C2OC(CO)C(O)C2O)C(=O)N1` (stereo not drawn): the T/C is 79 % of control (dose: 6.25 mg/kg/injection, schedule: Q01DX010 (sc), vehicle: saline) and 123 % of control (dose: 12.5 mg/kg/injection, schedule: Q01DX010 (sc), vehicle: saline).
Consider `c1cc(OCC2CO2)ccc1OCC1CO1` (stereo not drawn), for which the T/C runs as follows: under setting [1], 110 % of control; under setting [2], 103 % of control; under setting [7], 92 % of control; under setting [8], 106 % of control.
As to `CCN=C=NCCCN(C)C`, the T/C runs as follows: (dose: 25.0 mg/kg/injection, schedule: Q04DX003 (sc), vehicle: saline) 112 % of control; (dose: 50.0 mg/kg/injection, schedule: Q04DX003 (sc), vehicle: saline) 76 % of control.
On to `O=c1ncccn1[C@@H]1O[C@H](CO)[C@H](O)C1O` (stereo partly drawn), for which the T/C runs as follows: under setting [3], 114 % of control; (dose: 300.0 mg/kg/injection, schedule: Q04DX003 (sc), vehicle: saline) 156 % of control; (dose: 600.0 mg/kg/injection, schedule: Q04DX003 (sc), vehicle: saline) 160 % of control; (dose: 1200.0 mg/kg/injection, schedule: Q04DX003 (sc), vehicle: saline) 108 % of control.
For `Nc1n[nH]c(N)n1`, the T/C was 92 % of control under setting [9]; 94 % of control (dose: 400.0 mg/kg/injection, schedule: Q01DX010 (sc), vehicle: saline); 111 % of control (dose: 800.0 mg/kg/injection, schedule: Q01DX010 (sc), vehicle: saline).
On to `O=C(NC(Cc1ccc(I)cc1)C(=O)O)c1ccc(Br)cc1` (stereo not drawn), for which the T/C (dose: 75.0 mg/kg/injection, schedule: Q04DX003 (ip), vehicle: sodium bicarbonate) was -67 % of control.
`COc1nc(=O)n(C2C=CC(=O)O2)cc1F` (stereo not drawn): under “dose: 75.0 mg/kg/injection, schedule: Q04DX003 (sc), vehicle: Klucel (hydroxypropylcellulose) (HPC)”, the T/C is 116 % of control.
As for `CC1(C)OCC2OC=CC(=O)C2O1` (stereo not drawn), the T/C was 79 % of control (dose: 150.0 mg/kg/injection, schedule: Q04DX003 (sc), vehicle: saline with Tween-80); 73 % of control under setting [1]; 112 % of control under setting [2].
As for `CCCCCCCC(=O)[O][Hg][CH2]C1COC([CH2][Hg][O]C(=O)CCCCCCC)CO1` (stereo not drawn), the T/C runs as follows: under setting [1], 58 % of control; under setting [2], 70 % of control; under setting [7], 50 % of control; under setting [8], 36 % of control.
Consider `COc1cc(C(C)(C)C)cc(OC)c1C(O)(c1c(OC)cc(C(C)(C)C)cc1OC)c1c(OC)cc(C(C)(C)C)cc1OC`, for which the T/C reads like this: under setting [2], 212 % of control; under setting [7], 154 % of control; under setting [8], 207 % of control.
Regarding `O=C1SC(c2ccccc2)=S=C1c1ccccc1`, the T/C is, setting by setting: under setting [1], 102 % of control; under setting [2], 78 % of control; under setting [7], 109 % of control; under setting [8], 48 % of control.
For the compound `COC1/C=C\C=C(/C)C(=O)NC2=CC(=O)C=C(C2=O)C(OC)C(C)CC(OC)C(OC)C(C)/C=C(/C)C1OC(N)=O` (stereo not drawn), the T/C by setting is: (dose: 2.25 mg/kg/injection, schedule: Q04DX003 (sc), vehicle: Klucel (hydroxypropylcellulose) (HPC)) 77 % of control; (dose: 4.5 mg/kg/injection, schedule: Q04DX003 (sc), vehicle: Klucel (hydroxypropylcellulose) (HPC)) 63 % of control; (dose: 9.0 mg/kg/injection, schedule: Q04DX003 (sc), vehicle: Klucel (hydroxypropylcellulose) (HPC)) 52 % of control.
